Experimental data reported in ChEMBL document CHEMBL1201862, “PubChem BioAssay data set” (2004).
The source made the active and inactive calls. Unless noted, the calls are words filed in the database; no cut-off is given here.

Legend:
[1] = test system: INS1; test: suppression of cytokine-induced beta-cell apoptosis – INS-1E, caspase luminescence, dry powder, beta-cell apoptosis inhibitor project, dose response (AID 488848); type: functional, cell-based; conditions: Rattus norvegicus
[2] = biological target: T1, Hexokinase HKDC1 (Homo sapiens, UniProt Q2TB90); test: SAR analysis of small molecule inhibitors of hexokinase domain containing I (HKDC1). [Related pubchem assays (depositor defined):AID493160, AID493190]; type: functional
T1 sequence (Q2TB90 whole entry): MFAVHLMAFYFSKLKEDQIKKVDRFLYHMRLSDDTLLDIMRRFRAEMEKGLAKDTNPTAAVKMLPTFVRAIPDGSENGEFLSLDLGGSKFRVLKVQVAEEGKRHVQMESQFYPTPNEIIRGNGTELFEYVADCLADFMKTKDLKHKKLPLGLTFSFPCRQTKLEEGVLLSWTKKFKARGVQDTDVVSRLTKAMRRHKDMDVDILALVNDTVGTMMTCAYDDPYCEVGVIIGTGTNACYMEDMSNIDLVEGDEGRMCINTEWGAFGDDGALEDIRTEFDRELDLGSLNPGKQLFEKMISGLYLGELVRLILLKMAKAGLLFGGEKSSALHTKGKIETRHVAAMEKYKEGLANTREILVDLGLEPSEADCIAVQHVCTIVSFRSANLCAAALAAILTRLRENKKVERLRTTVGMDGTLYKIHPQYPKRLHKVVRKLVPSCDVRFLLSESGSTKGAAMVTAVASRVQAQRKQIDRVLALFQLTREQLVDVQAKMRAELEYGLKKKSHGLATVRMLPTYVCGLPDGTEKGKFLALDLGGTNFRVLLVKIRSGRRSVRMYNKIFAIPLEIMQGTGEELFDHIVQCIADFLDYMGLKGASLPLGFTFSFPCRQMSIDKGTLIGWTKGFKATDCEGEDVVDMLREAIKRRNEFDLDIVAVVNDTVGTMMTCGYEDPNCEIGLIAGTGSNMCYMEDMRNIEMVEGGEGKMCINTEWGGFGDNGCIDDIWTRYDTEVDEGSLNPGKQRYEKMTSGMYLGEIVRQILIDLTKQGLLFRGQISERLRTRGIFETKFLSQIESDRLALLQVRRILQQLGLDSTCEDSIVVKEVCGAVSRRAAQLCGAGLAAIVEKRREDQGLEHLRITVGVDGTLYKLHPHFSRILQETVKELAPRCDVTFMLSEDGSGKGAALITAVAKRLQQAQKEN

[3] = biological target: T2, Hexokinase-1 (Homo sapiens, UniProt P19367); test: SAR analysis of small molecule inhibitors of hexokinase domain containing I (HKDC1) in the hexokinase 1 selectivity assay. [Related pubchem assays (depositor defined):AID493160, AID493190]; type: functional
T2 sequence (P19367 whole entry): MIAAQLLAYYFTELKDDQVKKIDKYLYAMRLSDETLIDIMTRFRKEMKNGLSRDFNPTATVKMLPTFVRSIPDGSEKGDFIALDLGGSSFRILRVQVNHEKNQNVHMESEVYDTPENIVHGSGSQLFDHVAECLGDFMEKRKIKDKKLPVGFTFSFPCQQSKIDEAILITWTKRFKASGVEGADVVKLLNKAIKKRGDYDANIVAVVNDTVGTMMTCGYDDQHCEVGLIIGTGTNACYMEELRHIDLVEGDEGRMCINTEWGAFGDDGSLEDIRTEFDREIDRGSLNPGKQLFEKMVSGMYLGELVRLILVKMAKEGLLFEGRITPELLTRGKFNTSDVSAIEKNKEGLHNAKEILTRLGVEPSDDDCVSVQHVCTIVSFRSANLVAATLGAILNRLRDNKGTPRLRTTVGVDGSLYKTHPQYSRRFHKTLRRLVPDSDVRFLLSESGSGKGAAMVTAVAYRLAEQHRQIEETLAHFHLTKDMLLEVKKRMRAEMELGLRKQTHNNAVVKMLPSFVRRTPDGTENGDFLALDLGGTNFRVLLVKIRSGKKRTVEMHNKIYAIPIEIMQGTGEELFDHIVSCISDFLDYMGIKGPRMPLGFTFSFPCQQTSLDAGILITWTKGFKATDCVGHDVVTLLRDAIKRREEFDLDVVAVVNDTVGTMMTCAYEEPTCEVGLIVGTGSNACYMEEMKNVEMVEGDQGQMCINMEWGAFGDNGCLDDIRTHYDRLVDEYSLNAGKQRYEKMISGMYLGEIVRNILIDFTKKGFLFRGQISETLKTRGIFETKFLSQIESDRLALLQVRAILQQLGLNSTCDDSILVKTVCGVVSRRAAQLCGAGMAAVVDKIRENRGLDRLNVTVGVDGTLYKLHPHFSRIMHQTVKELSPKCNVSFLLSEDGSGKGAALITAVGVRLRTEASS

[4] = viability of BHK-21 cells – cell-based, secondary screen, cytotoxicity control for flavivirus guanylyltransferase probe project (AID 624078); type: functional
[5] = biological target: T3, Phospholipase D2 (Homo sapiens, UniProt O14939); test: PLD2 purified enzyme concentration response. [Related pubchem assays (depositor defined):AID588854]; type: functional
[6] = biological target: T4, Phospholipase D1 (Homo sapiens, UniProt Q13393); test: PLD1 purified enzyme concentration response. [Related pubchem assays (depositor defined):AID588854]; type: functional
T4 sequence (Q13393 whole entry): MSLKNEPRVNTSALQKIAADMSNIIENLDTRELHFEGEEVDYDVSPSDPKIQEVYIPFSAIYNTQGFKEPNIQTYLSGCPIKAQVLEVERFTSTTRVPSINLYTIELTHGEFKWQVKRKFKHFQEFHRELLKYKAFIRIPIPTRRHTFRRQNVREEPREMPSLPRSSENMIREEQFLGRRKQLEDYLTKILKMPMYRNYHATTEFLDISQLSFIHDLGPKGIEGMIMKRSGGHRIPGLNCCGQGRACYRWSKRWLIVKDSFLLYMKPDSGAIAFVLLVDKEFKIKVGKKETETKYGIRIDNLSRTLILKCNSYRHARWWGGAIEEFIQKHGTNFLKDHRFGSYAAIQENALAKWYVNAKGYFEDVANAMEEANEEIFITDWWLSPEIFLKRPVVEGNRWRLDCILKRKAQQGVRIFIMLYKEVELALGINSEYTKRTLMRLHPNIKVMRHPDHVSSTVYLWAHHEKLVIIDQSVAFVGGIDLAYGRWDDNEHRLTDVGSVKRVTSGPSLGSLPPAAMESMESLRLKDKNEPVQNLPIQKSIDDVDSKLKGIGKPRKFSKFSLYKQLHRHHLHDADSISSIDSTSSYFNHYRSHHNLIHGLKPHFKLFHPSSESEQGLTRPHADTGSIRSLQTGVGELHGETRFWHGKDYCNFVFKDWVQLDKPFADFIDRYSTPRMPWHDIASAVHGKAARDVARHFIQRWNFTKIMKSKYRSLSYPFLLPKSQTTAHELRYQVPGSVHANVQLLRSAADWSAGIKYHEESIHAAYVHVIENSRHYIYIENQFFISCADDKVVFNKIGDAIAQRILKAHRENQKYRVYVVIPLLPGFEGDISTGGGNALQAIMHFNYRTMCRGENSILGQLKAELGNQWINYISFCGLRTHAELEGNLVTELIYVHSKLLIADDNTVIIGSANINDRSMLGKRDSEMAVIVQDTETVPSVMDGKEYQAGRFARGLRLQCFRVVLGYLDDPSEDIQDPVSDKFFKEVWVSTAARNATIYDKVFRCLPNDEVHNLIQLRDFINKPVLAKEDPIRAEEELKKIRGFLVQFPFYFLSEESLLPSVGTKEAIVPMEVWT

[7] = biological target: T3, Phospholipase D2; test: cellular phospholipase D2 inhibition IC50 – cell-based, dose response (AID 602147); type: functional;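 further: cellular assay in HEK293 cells overexpressing GFP-tagged PLD2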
[8] = test system: NIH3T3; test: mammalian cell viability counter-check – Alamar Blue, fluconazole, dry powder, cytotoxicity control for antifungal drug resistance project, dose response (AID 488809); type: functional, cell-based; conditions: Mus musculus
[9] = THP-1 cell cytotoxicity, cytotoxicity control, set 6 (AID 602433); type: functional; conditions: Mycobacterium tuberculosis

T3 sequence (O14939 whole entry): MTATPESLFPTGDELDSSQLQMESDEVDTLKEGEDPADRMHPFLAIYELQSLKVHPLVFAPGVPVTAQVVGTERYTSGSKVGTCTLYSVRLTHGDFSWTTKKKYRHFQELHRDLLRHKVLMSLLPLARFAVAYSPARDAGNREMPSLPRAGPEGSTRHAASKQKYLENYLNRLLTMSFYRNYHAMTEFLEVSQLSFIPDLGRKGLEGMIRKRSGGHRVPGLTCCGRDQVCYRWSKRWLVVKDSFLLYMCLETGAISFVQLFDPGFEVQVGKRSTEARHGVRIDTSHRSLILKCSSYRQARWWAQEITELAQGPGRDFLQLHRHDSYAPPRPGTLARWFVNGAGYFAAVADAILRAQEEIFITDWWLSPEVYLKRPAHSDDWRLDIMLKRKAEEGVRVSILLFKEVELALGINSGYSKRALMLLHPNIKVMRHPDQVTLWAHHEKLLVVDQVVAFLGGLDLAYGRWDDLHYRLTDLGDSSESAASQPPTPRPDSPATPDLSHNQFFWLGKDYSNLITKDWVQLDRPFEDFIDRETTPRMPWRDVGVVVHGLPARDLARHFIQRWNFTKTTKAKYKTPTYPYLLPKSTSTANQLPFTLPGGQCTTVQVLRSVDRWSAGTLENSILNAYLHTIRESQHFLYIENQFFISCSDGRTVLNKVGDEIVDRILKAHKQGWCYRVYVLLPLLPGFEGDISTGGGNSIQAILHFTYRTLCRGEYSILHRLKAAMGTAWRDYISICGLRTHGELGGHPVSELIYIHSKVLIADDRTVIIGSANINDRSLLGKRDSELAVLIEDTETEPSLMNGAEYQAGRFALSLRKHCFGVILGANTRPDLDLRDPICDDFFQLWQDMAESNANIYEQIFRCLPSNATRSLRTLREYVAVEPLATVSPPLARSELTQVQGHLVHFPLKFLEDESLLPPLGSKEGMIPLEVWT

## COc1ccc(S(=O)(=O)N(C)C[C@@H]2Oc3c(NC(=O)Nc4cccc(-c5ncccn5)c4)cccc3C(=O)N([C@@H](C)CO)C[C@H]2C)cc1
[1]
  AC50: 98 µM (active)

## O=C(O)CSc1cc(NS(=O)(=O)c2ccc(F)cc2)c2ccccc2c1O
[2]
  IC50: 5.02 µM (active)
[3]
  IC50: 40.3 µM (inactive)
[4]
  CC50: 6.86 µM (active)

## O=C(NCCN1CCC2(CC1)C(=O)NCN2c1ccc(F)c(F)c1)c1cnc2ccccc2c1
[5]
  IC50: 0.2 µM (active)
[6]
  IC50: 5.48 µM (active)
[7]
  IC50: 0.069 µM (active)

## O=S(=O)(c1ccc(Cl)cc1)N1CCN(c2ccnc3cc(Cl)ccc23)CC1
[8]
  AC50: 27.7 µM (active)

## CC(C)CCNC(=O)CSc1nc2c(c(=O)[nH]1)CCCC2
[9]
  CC50: > 100 µM (inconclusive)
